# Data from US6284769A, “Nonpeptide kappa opioid receptor antagonists” (The Board of Trustees of the University of Illinois, priority 1999, dated 2001).
# pEC50, pKi: −log10 of the molar value. Read-outs that look alike come from different tables or passages of the source.
# Legend:
# μ opioid receptor [1] = biological target: T1, μ opioid receptor (Homo sapiens, UniProt P35372); experiment: Receptor binding, [3H]DAMGO, membranes of transfected CHO cells
# T1 construct: expressed in transfected cells; host or cells: Chinese hamster ovary (CHO) cells, membranes
# T1 sequence (P35372 whole entry): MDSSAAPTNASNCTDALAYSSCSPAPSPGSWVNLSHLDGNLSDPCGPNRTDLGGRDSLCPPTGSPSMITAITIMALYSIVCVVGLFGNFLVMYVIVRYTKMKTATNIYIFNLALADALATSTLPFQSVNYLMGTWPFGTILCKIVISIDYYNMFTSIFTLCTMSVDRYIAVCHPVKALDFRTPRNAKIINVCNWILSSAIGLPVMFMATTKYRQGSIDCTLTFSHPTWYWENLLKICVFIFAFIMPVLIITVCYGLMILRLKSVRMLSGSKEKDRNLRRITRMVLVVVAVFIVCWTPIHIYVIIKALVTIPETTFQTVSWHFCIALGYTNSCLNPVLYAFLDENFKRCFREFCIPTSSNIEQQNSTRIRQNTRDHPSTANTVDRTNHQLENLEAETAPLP
# Protocol: (§1) Opioid receptor activity studies were carried out by the method of the Opiate Treatment Discovery Program of the National Institutes of Health. Receptor binding studies were conducted on Chinese hamster ovary (CHO) cells which had been transfected with human DNA encoding for the μ, δ, and κ opiate receptors, respectively.
# (§2) The cell line expressing the μ opioid receptor is maintained in Ham's F-12 medium supplemented with 10% fetal bovine serum and 400 μg/ml GENETICIN (G418 sulfate). The cell line expressing the δ opioid receptor is maintained in Ham's F-12 medium supplemented with 10% fetal bovine serum and 500 μg/ml hygromycin B. The cell line expressing the κ opioid receptor is maintained in Dulbecco's minimal essential medium (DMEM) supplemented with 10% fetal bovine serum, 400 μg/ml GENETICIN (G418 sulfate), and 0.1% penicillin/streptomycin. All cell lines are grown to full confluency, then harvested for membrane preparation. The membrane used for functional assays is prepared in buffer A (20 mM HEPES, 10 mM MgCl2, and 100 mM NaCl at pH 7.4) and the membrane for binding assays is prepared in 50 mM Tris buffer, pH 7.7. Cells are harvested by scraping the plates with a rubber policeman and then centrifuged at 500 times gravity for 10 minutes. The cell pellet is suspended in buffer A or Tris buffer, homogenized in a Polytron Homogenizer, and centrifuged at 20,000 times gravity for 20 minutes. The cell pellet is washed in buffer A or Tris, centrifuged at 20,000 times gravity for another 20 minutes, and, finally, suspended in a small amount of buffer to determine protein content. Membrane is aliquoted in small vials at a concentration of 6 mg/ml per vial, stored at -70° C., and used as needed.
# Binding assays were conducted using [^3 H]DAMGO, [^3 H]Cl-DPDPE and [^3 H]U69,593 as labelling ligands specific for μ, δ and κ opioid receptors, respectively. DAMGO is Tyr-D-Ala-Gly-NMePhe-[…]. The structural formulae for U69,593 and Cl-DPDPE are [drawing 10] […]
# (§3) Samples were filtered over glass fiber filters and counted as described for the binding assays.
# δ opioid receptor [2] = biological target: T2, δ opioid receptor (Homo sapiens, UniProt P41143); experiment: Receptor binding, [3H]Cl-DPDPE, membranes of transfected CHO cells; settings: CHO cell membranes, radioligand [3H]Cl-DPDPE, 1 hour at 25° C., SEM in brackets
# T2 construct: expressed in transfected cells; host or cells: Chinese hamster ovary (CHO) cells, membranes
# T2 sequence (P41143 whole entry): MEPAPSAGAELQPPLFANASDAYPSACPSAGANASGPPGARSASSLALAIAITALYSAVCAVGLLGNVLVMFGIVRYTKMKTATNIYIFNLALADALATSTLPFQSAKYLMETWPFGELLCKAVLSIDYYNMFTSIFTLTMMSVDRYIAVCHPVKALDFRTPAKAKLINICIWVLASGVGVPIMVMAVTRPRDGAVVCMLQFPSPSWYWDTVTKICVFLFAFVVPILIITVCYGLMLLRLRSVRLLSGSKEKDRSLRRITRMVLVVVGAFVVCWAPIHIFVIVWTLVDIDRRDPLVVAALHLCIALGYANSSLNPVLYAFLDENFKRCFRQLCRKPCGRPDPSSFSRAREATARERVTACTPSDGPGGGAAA
# Protocol: as §1
# as §2, with “The cell pellet is suspended in buffer A or Tris buffer, homogenized in a Polytron Homogenizer, and centrifuged at 20,000 times gravity for 20 minutes. The cell pellet is washed in buffer A or Tris, centrifuged at 20,000 times gravity for another 20 minutes, and, finally, suspended in a small amount of buffer to determine protein content. Membrane is aliquoted in small vials at a concentration of 6 mg/ml per vial, stored at -70° C., and used as needed.” left out
# as §3
# κ opioid receptor [3] = biological target: T3, κ opioid receptor (Homo sapiens, UniProt P41145); experiment: Receptor binding, [3H]U69,593, membranes of transfected CHO cells; settings: CHO cell membranes, radioligand [3H]U69,593, 1 hour at 25° C., SEM in brackets
# T3 construct: expressed in transfected cells; host or cells: Chinese hamster ovary (CHO) cells, membranes
# T3 sequence (P41145 whole entry): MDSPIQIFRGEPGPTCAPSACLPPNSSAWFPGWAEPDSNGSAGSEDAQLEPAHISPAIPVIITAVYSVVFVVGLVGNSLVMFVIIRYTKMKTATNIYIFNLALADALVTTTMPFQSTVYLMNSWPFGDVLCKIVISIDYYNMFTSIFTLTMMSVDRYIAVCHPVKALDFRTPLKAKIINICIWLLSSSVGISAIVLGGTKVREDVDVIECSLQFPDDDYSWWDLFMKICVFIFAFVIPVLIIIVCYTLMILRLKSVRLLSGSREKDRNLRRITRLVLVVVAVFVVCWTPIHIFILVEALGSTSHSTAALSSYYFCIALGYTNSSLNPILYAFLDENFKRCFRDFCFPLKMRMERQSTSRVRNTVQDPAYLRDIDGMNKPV
# Protocol: as §1
# The cell line expressing the μ opioid receptor is maintained in Ham's F-12 medium supplemented with 10% fetal bovine serum and 400 μg/ml GENETICIN (G418 sulfate). […]
# Cell membranes were incubated with the appropriate radioligand and unlabeled compounds of Example 1 in a total volume of 200 μl in 96-well plates, usually for 1 hour at 25° C. […] Filters were dried overnight before radioactivity levels were determined. Nonspecific binding was determined by using 1.0 μM of the unlabeled counterpart of each radioligand.
# (§4) Analysis of the data for IC50 values and Hill coefficients was performed using the program PRISM. Opioid receptor binding constants, Ki, were calculated using the Cheng-Prusoff transformation, Ki=IC50 /(1+L/Kd), where L is radioligand concentration and Kd is the binding affinity of the radioligand, as determined previously by saturation analysis. […] Samples were filtered over glass fiber filters and counted as described for the binding assays. […]
# μ opioid receptor [4] = biological target: T1, μ opioid receptor; experiment: [35S]GTPγS agonist/antagonist assay, μ-CHO membrane; assay type: biochemical
# Protocol: as §1
# as §2, with “The cell pellet is suspended in buffer A or Tris buffer, homogenized in a Polytron Homogenizer, and centrifuged at 20,000 times gravity for 20 minutes. The cell pellet is washed in buffer A or Tris, centrifuged at 20,000 times gravity for another 20 minutes, and, finally, suspended in a small amount of buffer to determine protein content. Membrane is aliquoted in small vials at a concentration of 6 mg/ml per vial, stored at -70° C., and used as needed.” left out
# as §4
# (§5) Agonist activity at μ, δ and κ receptors is reported as % stimulation relative to the respective agonists DAMGO, Cl-DPDPE, and U69,593. […] A full Schild analysis was conducted, utilizing a full agonist dose response curve in the presence of at least three concentrations of the antagonist. pA2 values and Schild slopes were determined using a statistical program designed for these experiments.
# δ opioid receptor [5] = biological target: T2, δ opioid receptor; experiment: [35S]GTPγS agonist/antagonist assay, δ-CHO membrane; assay type: biochemical
# Protocol: as §1, §2, §3
# κ opioid receptor [6] = biological target: T3, κ opioid receptor; experiment: [35S]GTPγS agonist/antagonist assay with Schild analysis, κ-CHO membrane; assay type: biochemical
# Protocol: as §1, §2
# as §4, with “analysis. See Y. C. Cheng et al., Biochem. Pharmacol., 22, p. 3099-3102 (1973).” for “analysis.”
# as §5
# δ receptor of the T-cell = experiment: Stimulatory activity at the δ receptor of the T-cell of the immune system; assay type: cell-based; settings: result in words
# [7] = In vivo analgesic testing on rats; settings: result in words
# [8] = [35S]GTPγS, 60 min at 25° C., SEM in brackets
smiles,measurement,setting,value
"CN1CC[C@]23c4c5ccc(O)c4O[C@H]2c2n[nH]cc2C[C@@]3(O)[C@H]1C5 [Example 1, 17-Methyl-6,7-dehydro-3,14-hydroxy-4,5α-epoxy-6,7:5',4'(6,7: 3',4')pyrazolomorphin (tautomers)]",pKi,"μ opioid receptor [1]; CHO cell membranes, human μ receptor, radioligand [3H]DAMGO, 1 hour at 25° C., SEM in brackets",8.43
same,Selectivity: affinity for μ over δ,"μ opioid receptor [1]; ratio of binding affinities, μ versus δ",about 7 times
same,Selectivity: affinity for μ over κ,"μ opioid receptor [1]; ratio of binding affinities, μ versus κ",about 7 times
same,pKi,δ opioid receptor [2],7.72
same,pKi,κ opioid receptor [3],7.91
same,Emax,"μ opioid receptor [4]; 1 h, [35S]GTPγS, relative to full agonist DAMGO, read-out: % Stimulation μ-CHO membrane",80.3%
same,pEC50,μ opioid receptor [4]; [8],7.72
same,Agonist/antagonist property at the μ receptor,μ opioid receptor [4]; result in words,agonist
same,Emax,"δ opioid receptor [5]; 1 h, [35S]GTPγS, relative to full agonist Cl-DPDPE, read-out: % Stimulation δ-CHO membrane",75.2%
same,pEC50,δ opioid receptor [5]; [8],7.60
same,Agonist/antagonist property at the δ receptor,δ opioid receptor [5]; result in words,agonist
same,Kb,"κ opioid receptor [6]; [35S]GTPγS, antagonism, agonist U69,593, SEM in brackets, read-out: Ke (SEM) κ-CHO membrane",59.3 nM
same,Schild slope,"κ opioid receptor [6]; full Schild analysis, κ-CHO membrane",-0.92±0.32
same,Kb,"κ opioid receptor [6]; full Schild analysis, κ-CHO membrane, read-out: pA2 value (converted)",51.3 nM
same,Agonist/antagonist property at the κ receptor,κ opioid receptor [6]; result in words,antagonist
same,Stimulatory activity at the δ receptor of the T-cell,δ receptor of the T-cell,weak stimulatory activity
same,Analgesic activity,[7],potent analgesic activity
same,Duration of analgesic activity,[7],long duration of activity
